Source: patent publication US8293705B2, “HCV protease inhibitors and uses thereof” (Avila Therapeutics, Inc., priority 2007, dated 2012)

Legend:
[1] = tested on: HCV RNA replicon in cell line ET (luc-ubi-neo/ET), human Huh7 hepatoma; assay: HCV RNA replicon assay, Example 14 Method A; assay type: cell-based; settings: Hepatitis C virus, Huh-7, assay of Example 14, 72 hr; for IC50: read-out: Inhibition, Replicon (IC50); for IC90: read-out: Inhibition, Replicon, IC90 value
Procedure: The compounds were assayed to evaluate the antiviral activity and cytotoxicity of compounds in vitro using HCV RNA replicons. This assay used the cell line ET (luc-ubi-neo/ET), which is a human Huh7 hepatoma cell line that contains an HCV RNA replicon with a stable luciferase (Luc) reporter and three cell culture-adaptive mutations. […]
The ET cell line was grown in Dulbecco's modified essential media (DMEM), 10% fetal bovine serum (FBS), 1% penicillin-streptomycin (pen-strep), 1% glutamine, 250 μg/mL G418 in a 5% CO2 incubator at 37° C. All cell culture reagents were obtained from Mediatech (Manassas, Va.). Cells were trypsinized (1% trypsin:EDTA) and plated out at 5×10^3 cells/well in white 96-well assay plates (Costar) dedicated to cell number (cytotoxicity) or antiviral activity assessments. Drugs were added at six 3-fold concentrations each and the assay was run in DMEM, 5% FBS, 1% pen-strep, 1% glutamine. Human interferon alpha-2b (PBL Biolabs, New Brunswick, N.J.) was included in each run as a positive control compound. Cells were processed 72 hr post drug addition when the cells are still subconfluent. Antiviral activity was measured by analyzing replicon-derived luciferase activity using the Steady-Glo Luciferase Assay System (Promega, Madison, Wis.) according to manufacturer's instruction. The number of cells in each well was determined by CytoTox-1 reagent (Promega). Compound profile was derived by calculating applicable EC50 (effective concentration inhibiting virus replication by 50%), EC90 (effective concentration inhibiting virus replication by 90%), IC50 (concentration decreasing cell viability by 50%) and SI50 (selective index: […]) values.

[2] = molecular target: T1, HCV NS3/4A 1b protease D168A (Hepatitis C virus genotype 1b, UniProt Q9WMX2, D1194A); assay: HCV protease FRET assay (IC50), Example 15; assay type: biochemical
T1 construct: 10× stocks of NS3/4A protease enzyme from Bioenza (Mountain View, Calif.); purchased Bioenza (Mountain View, Calif.)
Procedure: (§1) The following protocol was used to generate IC50 values as depicted for compound 239 in Table 4, above. The protocol is a modified FRET-based assay (v—02) from In Vitro Resistance Studies of HCV Serine Protease Inhibitors, 2004, JBC, vol. 279, No. 17, pp 17508-17514.
(§2) 10× stocks of NS3/4A protease enzyme from Bioenza (Mountain View, Calif.) and 1.13× 5-FAM/QXL™520 FRET peptide substrate from Anaspec (San Jose, Calif.) were prepared in 50 mM HEPES, pH 7.8, 100 mM NaCl, 5 mM DTT and 20% glycerol. 5 μL of each enzyme were pre-incubated in a Corning (#3573) 384-well, black, non-treated microtiter plate (Corning, N.Y.) for 30 min at 25° C. with a 0.5 μL volume of 50% DMSO and serially diluted compounds prepared in 50% DMSO. Protease reactions were started with the addition of 45 μL of the FRET substrate and monitored for 120 minutes at λex487/λem514 through Quad^4 monochromoters in a Synergy^4 plate reader from BioTek (Winooski, Vt.). At the conclusion of each assay, progress curves from each well were examined for linear reaction kinetics and fit statistics (R^2, absolute sum of squares). Initial velocity (0 minutes to 30+ minutes) from each reaction was determined from the slope of a plot of relative fluorescence units vs time (minutes) and then plotted against inhibitor concentration to estimate IC50 from log [Inhibitor] vs Response, Variable Slope model in GraphPad Prism from GraphPad Software (San Diego, Calif.).
(§3) The compound numbers correspond to the compound numbers in Table 3. […] ;

[3] = molecular target: T2, HCV NS3/4A 1b protease wild type (Hepatitis C virus genotype 1b, UniProt Q9WMX2); assay: HCV protease FRET assay (IC50), Example 15; assay type: biochemical
T2 construct: 10× stocks of NS3/4A protease enzyme from Bioenza (Mountain View, Calif.); purchased Bioenza (Mountain View, Calif.)
Procedure: as §1, §2, §3

[4] = molecular target: T3, HCV NS3/4A 1b protease A156T (Hepatitis C virus genotype 1b, UniProt Q9WMX2, A1182T); assay: HCV protease FRET assay (IC50), Example 15; assay type: biochemical
T3 construct: 10× stocks of NS3/4A protease enzyme from Bioenza (Mountain View, Calif.); purchased Bioenza (Mountain View, Calif.)
Procedure: as §1, §2, §3

[5] = molecular target: T1, HCV NS3/4A 1b protease D168A; assay: HCV protease FRET assay (IC50_APP), Example 16; assay type: biochemical
[6] = molecular target: T2, HCV NS3/4A 1b protease wild type; assay: HCV protease FRET assay (IC50_APP), Example 16; assay type: biochemical
[7] = molecular target: T3, HCV NS3/4A 1b protease A156T; assay: HCV protease FRET assay (IC50_APP), Example 16; assay type: biochemical
HCV NS3•4A protease WT = HCV NS3•4A protease WT (Hepatitis C virus genotype 1b, UniProt Q9WMX2); assay: cell-based
HCV NS3/4A wild type = molecular target: T4, HCV NS3/4A wild type (Hepatitis C virus genotype 1b, UniProt Q9WMX2); assay: Mass spectrometric analysis of covalent modification (MALDI-TOF); assay type: binding; settings: 10× excess of test compound to protein
T4 construct: HCV NS3/4A wild type (wt) was incubated for 1 hr at a 10× fold access of test compound to protein; purchased Bioenza, Calif
Method in brief: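 HCV NS3/4A protease (100 pmol wild type; C159S mutant as comparison) incubated with 10-fold molar excess of compound for 1 and 3 h. Samples acidified in 0.1% TFA, C4 ZipTip-desalted, analysed by MALDI-TOF intact-mass measurement in linear mode, sinapinic acid matrix.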

[8] = molecular target: T5, HCV NS3/4A mutant R155K protease (Hepatitis C virus genotype 1b, UniProt Q9WMX2, R1181K); assay: as above; assay type: binding; settings: 3 hours, 10× excess of compound
T5 construct: mass spectroscopic analysis of HCV NS3/4A mutant R155K protease in the presence of test compound I-11
Procedure: (§4) As depicted in FIGS. 4, 5, 6, and 7, mass spectrometric analysis of HCV mutants in the presence of compound I-11 was performed. […] 2 ul aliquots of the samples were diluted with 10 ul of 0.1% TFA prior to micro C4 ZipTipping directly onto the MALDI target using Sinapinic acid as the desorption matrix (10 mg/ml in 0.1% TFA:Acetonitrile 50:50). For intact protein mass measurement the instrument was set in linear mode using a pulsed extraction setting of 24,500 and apomyoglobin as the standard to calibrate the instrument.

[9] = molecular target: T6, HCV NS3/4A mutant A156T protease (Hepatitis C virus genotype 1b, UniProt Q9WMX2, A1182T); assay: as above; assay type: binding; settings: 3 hours, 10× excess of compound
T6 construct: mass spectroscopic analysis of HCV NS3/4A mutant A156T protease in the presence of test compound I-11
Procedure: as §4

[10] = molecular target: T7, HCV NS3/4A 1b protease R155K (Hepatitis C virus genotype 1b, UniProt Q9WMX2, R1181K); assay: HCV protease FRET assay (IC50_APP), Example 16; assay type: biochemical; settings: reaction started immediately after enzyme addition, read-out: Inhibition (apparent IC50, IC50_APP), HCV R155K
T7 construct: 10× stocks of NS3/4A protease enzyme from Bioenza (Mountain View, Calif.); purchased Bioenza (Mountain View, Calif.)

[11] = tested on: HCV RNA replicon in cell line ET (luc-ubi-neo/ET), human Huh7 hepatoma; assay: Replicon luciferase assay, Example 26; assay type: cell-based; settings: Hepatitis C virus, Huh-7, assay of Example 26, 72 hr; for EC50: read-out: Inhibition, Replicon, EC50 value
Procedure: The compounds were assayed to evaluate the antiviral activity and cytotoxicity of compounds using replicon-derived luciferase activity. This assay used the cell line ET (luc-ubi-neo/ET), which is a human Huh7 hepatoma cell line that contains an HCV RNA replicon with a stable luciferase (Luc) reporter and cell culture-adaptive mutations. The ET cell line was grown in a 5% CO2 incubator at 37° C. in Dulbecco's modified essential media (DMEM) supplemented with 2 mM L-glutamine, nonessential amino acids, 100 U of penicillin/ml, 100 μg of streptomycin/mL, and 10% fetal bovine serum. G418 (Geneticin; Invitrogen) was added at a final concentration of 400 ug//mL.
All cell culture reagents were obtained from Invitrogen (Carlsbad). Cells were trypsinized (1% trypsin:EDTA) and plated out at 5×10^3 cells/well in white 96-well assay plates (Costar) dedicated to cell number (cytotoxicity) or antiviral activity assessments. Test compounds were added at six 3-fold concentrations each and the assay was run in DMEM, 5% FBS, 1% pen-strep, 1% glutamine, 1% non essential amino acid. Human interferon alpha-2b (PBL Biolabs, New Brunswick, N.J.) was included in each run as a positive control compound. Cells were processed 72 hr post test compound addition when the cells were still subconfluent. Antiviral activity was measured by analyzing replicon-derived luciferase activity using the Steady-Glo Luciferase Assay System (Promega, Madison, Wis.) according to manufacturer's instruction. The number of cells in each well was determined by Cell Titer Blue Assay (Promega). Compound profile was derived by calculating applicable EC50 (effective concentration inhibiting virus replication by 50%), EC90 (effective concentration inhibiting virus replication by 90%), IC50 (concentration decreasing cell viability by 50%) and SI50 (selective index: […]) values.

[12] = molecular target: T8, HCV NS3/4A 1b protease C159S (Hepatitis C virus genotype 1b, UniProt Q9WMX2, C1185S); assay: HCV protease FRET assay (IC50_APP), Example 16; assay type: biochemical; settings: reaction started immediately after enzyme addition, read-out: Inhibition (apparent IC50, IC50_APP), HCV C159S
T8 construct: 10× stocks of NS3/4A protease enzyme from Bioenza (Mountain View, Calif.); purchased Bioenza (Mountain View, Calif.)

[13] = molecular target: T9, NS3 protease self-cleavage in Huh-7-Luc-Neo-ET replicon cells (Hepatitis C virus genotype 1b, UniProt Q9WMX2, E1202G/T1280I); assay: Inhibition of protease self cleavage in replicon cells (washout); assay type: cell-based; settings: 16 hours continuous exposure
T9 construct: blotted with polyclonal anti NS3 antibody (Bioenza, Calif.)
Procedure: Huh-7-Luc-Neo-ET cells were plated in Replicon Assay Medium (RPMI supplemented with 5% FBS, 1× non-essential amino acids and pen/strep) at a density of 1×10^5 cells/well in 12 well plates. Eight hours later the media was removed and replaced with 1 ml media containing test compound (5 wells per compound) and 0.02% DMSO and the cells were returned to the incubator overnight. Sixteen hours later 1 well from each compound and 1 untreated well were washed with PBS, then lysed and scraped into 30 ul of Cell Extraction Buffer (Biosource, Camarillo, Calif.) plus Complete Protease Inhibitor (Roche, Indianapolis, Ind.). The remaining wells were rinsed 2× with PBS then fed with Replicon Media and returned to the incubator. […]
Cell lysates were separated by SDS-Page (4-20%) and transferred to Immobilon-P PVDF membrane (Millipore Corporation, MA) and blotted with polyclonal anti NS3 antibody (Bioenza, Calif.). Blots were scanned on an Odyssey infrared scanner from Licor and the FL band and cleavage products were quantified separately using the Licor software provided with the scanner. The cleavage product was calculated as a percentage of the total NS3 in each sample and then normalized to the DMSO control so that the DMSO control reflects 100% activity.

[14] = Inhibition (IC50), HCV D168A, FRET, 30 min pre-incubation at 25° C.

Structure (SMILES)	IC50 [1] [nM]	IC90 [1] [nM]	IC50 ([2]; Comparative IC50 Values, D168A, biochemical assay, applicant's compound) [nM]	IC50 [2, 14] [nM]	IC50 [3] [nM]	IC50 ([4]; Comparative IC50 Values, A156T, biochemical assay, applicant's compound) [nM]	IC50 ([4]; Inhibition (IC50), HCV A156T, FRET, 30 min pre-incubation at 25° C.) [nM]	IC50 [5] [nM]	IC50 [6] [nM]	IC50 [7] [nM]	IC50 (HCV NS3•4A protease WT) [nM]	Covalent modification of HCV NS3/4A wild type (HCV NS3/4A wild type; MALDI-TOF)	Mass increase of new protein species vs protein with no compound (HCV NS3/4A wild type; 1 hr)	Conversion of HCV (R155K) mutant to compound adduct [8]	Conversion of HCV (A156T) mutant to compound adduct [9]	IC50 [10] [nM]	EC50 [11] [nM]	IC50 [12] [nM]	EC90 ([11]; read-out: Inhibition, Replicon, EC90 value) [nM]	NS3 internal self-cleavage products after treatment of replicon cells [13]
C=CC(=O)NC[C@H](NC(=O)OC(C)(C)C)C(=O)N1C[C@H](OC(=O)N2Cc3cccc(F)c3C2)C[C@H]1C(=O)N[C@]1(C(=O)NS(=O)(=O)C2CC2)C[C@H]1C=C [Compound I-1, (3R,5S)-1-((S)-3-acrylamido-2-(tert-butoxycarbonylamino)propanoyl)-5-((1R,2S)-1-(cyclopropylsulfonylcarbamoyl)-2-vinylcyclopropylcarbamoyl)pyrrolidin-3-yl 4-fluoroisoindoline-2-carboxylate]	10 to 100	10 to 100	8	< 10	< 10	3	< 10	100 to 1000	< 10	10 to 100	0.66	reacted significantly	approximately 751 Da	–	–	–	–	–	–	–
C=CC(=O)N(C)C[C@H](NC(=O)OC(C)(C)C)C(=O)N1C[C@H](OC(=O)N2Cc3cccc(F)c3C2)C[C@H]1C(=O)N[C@]1(C(=O)NS(=O)(=O)C2CC2)C[C@H]1C=C [Compound I-11, (3R,5S)-1-((S)-2-(tert-butoxycarbonylamino)-3-(N-methylacrylamido)propanoyl)-5-((1R,2S)-1-(cyclopropylsulfonylcarbamoyl)-2-vinylcyclopropylcarbamoyl)pyrrolidin-3-yl 4-fluoroisoindoline-2-carboxylate]	< 10	10 to 100	–	10 to 100	< 10	–	–	10 to 100	< 10	< 10	–	–	–	good conversion	complete conversion	10 to 100	–	–	–	–
C=C[C@@H]1C[C@]1(NC(=O)[C@@H]1CC(OC(=O)N2Cc3cccc(F)c3C2)CN1C(=O)[C@H](CC(=O)C=C(C)C)NC(=O)OC(C)(C)C)C(=O)NS(=O)(=O)C1CC1 (some centres unmarked) [Compound I-32]	–	–	–	–	–	–	–	10 to 100	< 10	< 10	–	–	–	–	–	10 to 100	< 10	< 10	–	–
CC(C)(C)OC(=O)N[C@H]1CN(C(=O)CCl)CCC/C=C\[C@@H]2C[C@@]2(C(=O)NS(=O)(=O)C2CC2)NC(=O)[C@@H]2CC(OC(=O)N3Cc4cccc(F)c4C3)CN2C1=O (some centres unmarked) [Compound I-47]	–	–	–	–	–	–	–	10 to 100	< 10	–	–	–	–	–	–	10 to 100	10 to 100	–	100 to 1000	inhibited
